Assay results from patent US20220110949A1, “A 19-NOR C3,3-DISUBSTITUTED C21-N-PYRAZOLYL STEROID AND METHODS OF USE THEREOF” (Sage Therapeutics, Inc., priority 2017, published 2022).
Marks after values point to notes of the source that are not given here.

Experiments:
[1] = system: healthy adults, 5-hour phase advance model of insomnia; assay: Double-blind, placebo-controlled 3-way crossover study; polysomnography (PSG) and subjective sleep measures in a 5-hour phase advance model of insomnia; assay type: in vivo, human; design: LPS decrease from baseline: dose or concentration left out as unconfirmed; conditions: for LPS (min), Median / NAW, Median / SE (%) (sleep efficiency), Median / TST (min), Median / WASO (min), Median / mDURAW (min), Median: PSG; for decrease in median duration of awakenings from baseline: baseline 9.364, awakenings in minutes; for TST median change (increase) from baseline: baseline median 317.00 minutes; for Sleep efficiency (SE) increase from baseline (median): median at baseline 66.042%; for WASO median change from baseline: median at baseline 134.00 minutes; for Subjective Sleep Quality (sSQ) Median (min, max): scale of 1 (poor) to 10 (excellent)
Description: Example 1. A Randomized, Double-Blind, Multiple Dose, 3-Way Crossover, Exploratory Study to Assess the Pharmacodynamic Effects of Compound 1 Capsules in Healthy Adults Using a 5-Hour Phase Advance Model of Insomnia
Sleep efficiency, defined as the percentage of time in bed spent asleep, as determined by polysomnography (PSG).
This is a double-blind, placebo-controlled, 3-way crossover study (Treatment Periods 1, 2, and 3), followed by an open-label administration of Compound 1 for pharmacokinetic purposes (Treatment Period 4). Subjects are expected to participate in Treatment Periods 1, 2 and 3. These subjects may continue into Treatment Period 4. If necessary, de novo subjects may also be included in Treatment Period 4 (see FIG. 2).
Subjects who meet the sleep diary continuation criteria will return for Visit 2 (Day −7) for a one-night PSG qualification visit. The PSG qualification visit (Visit 2) will begin on Study Day −7 and will continue to Study Day −6. The CRC will determine the median habitual bedtime from their sleep diary. Subjects should arrive at the clinic about 7 hours prior to their habitual bedtime for the one-night PSG qualification visit. Subjects will receive a standard meal and be prepared for overnight PSG recording. Lights out and PSG recording will begin five hours (±30 minutes) earlier than their mean habitual bedtime. Subjects will be required to remain in bed for eight hours, after which time the PSG recording will end, lights will turn on, and subjects will be awakened if asleep. Subjects will complete a Post Sleep Questionnaire about their subjective sleep thirty minutes after the end of the recording. Subjects will be discharged after all morning assessments have been completed at the discretion of the investigator. Subjects will have the option to remain in the clinic (e.g., to sleep at the clinic) until 9 AM.
Treatment Period 1 (Visit 3) begins on Study Day 1 and continues till Study Day 2. Subjects should arrive at the clinic approximately 7 hours prior to their habitual bedtime. Eligibility criteria will be confirmed and subjects will be randomized (1:1:1:1:1:1) to one of six possible treatment sequences (see FIG. 1). Predose assessments will be conducted. Subjects will receive a standard meal and be prepared for overnight PSG recording. Thirty minutes (±15 minutes) prior to lights out, blinded study drug (30 mg Compound 1, 45 mg Compound 1, or placebo) will be administered with food. Lights out and the PSG recording will begin five hours (±30 minutes) prior to their habitual bedtime. Subjects will be required to remain in bed for eight hours, after which time the lights will turn on, and subjects will be awakened if asleep. The PSG recording will end after 5 minutes (±1 minute) of quiet wakefulness is recorded. Subjects should complete a Post Sleep Questionnaire 30 minutes after the end of the recording. Post-PSG safety assessments will be conducted per the Schedule of Assessments. […] Subjects will have the option to remain in the clinic (e.g., to sleep at the clinic) until 9:00 AM.
Treatment Period 2 (Visit 4, Study Days 8 to 9) and Treatment Period 3 (Visit 5, Study Days 15 to 16) will follow similar procedures. Subjects will resume normal sleep patterns and maintain a sleep diary during the washout periods between treatments.
For Treatment Periods 1, 2, and 3, each subject will receive a single dose of study drug (30 mg Compound 1, 45 mg Compound 1, or placebo) on 3 separate visits; each subject will receive each dose level or placebo once. Study subjects who participate in Treatment Period 4 will receive one additional single dose of Compound 1 (30 mg) during one separate study visit.
The Efficacy Set will include all subjects in the Safety Set who have post-dose PSG data. Sleep efficiency will be analyzed using a mixed effects model for repeated measures (MMRM); the model will include treatment, treatment sequence, and period as fixed effects, with adjustment for screening sleep efficiency. […]

[2] = system: healthy adults; assay: Safety and tolerability (adverse events) in the study of Example 1; assay type: in vivo, human; conditions: single dose 30 mg or 45 mg
Description: Frequency, type, severity of adverse events; changes in vital sign assessments, clinical laboratory data, electrocardiogram (ECG) parameters, suicidality assessment via the Columbia Suicide Severity Rating Scale (C-SSRS), sleepiness assessment via Karolinska Sleepiness Scale (KSS), and psychomotor performance assessment via Digit Symbol Substitution Test (DSST)
The safety and tolerability of Compound 1 Capsules will be evaluated by frequency, type, and severity of adverse events; mean changes from baseline in clinical laboratory measures, vital signs, ECGs, suicidal ideation using the C-SSRS, sleepiness using the KSS, and psychomotor performance using the DSST.
Adverse events will be classified by type, incidence, severity, and causality. The overall incidence of adverse events will be summarized by Medical Dictionary for Regulatory Activities (MedDRA) system organ class and preferred term. Data for vital signs, clinical laboratory measurements, ECG, and concomitant medication usage will also be summarized. Suicidality data collected using the C-SSRS at baseline and at each visit during the active Treatment Period will be listed for all subjects. The C-SSRS listings will include behavior type and/or category for suicidal ideation and suicidal behavior of the C-SSRS. Out-of-range safety endpoints may be categorized as low or high, where applicable. […]

C[C@@]1(O)CC[C@H]2[C@H](CC[C@@H]3[C@@H]2CC[C@]2(C)[C@@H](C(=O)Cn4cc(C#N)cn4)CC[C@@H]32)C1 [Compound 1]
Latency to persistent sleep (LPS) (min), Median Difference from Placebo ([1]; 30 mg): -1.50 min | Mean Duration of Awakenings (mDURAW) (min), Median Difference from Placebo ([1]; 30 mg): −3.43** min | Number of Awakenings (NAW), Median Difference from Placebo ([1]; 30 mg): −1.00 | REM Sleep ([1]; 30 mg): 50.15 min | Sleep Efficiency (SE) (%), Median Difference from Placebo ([1]; 30 mg): 11.35* % | Stage N1 ([1]; 30 mg): 20.11 min | Stage N2 ([1]; 30 mg): 258.16 min | Stage N3 (SWS) ([1]; 30 mg): 68.38 min | Subjective Sleep Latency (sSL) (min) Median (min, max) ([1]; 30 mg): 15 (2, 240) min | Subjective TST (sTST) (min) Median (min, max) ([1]; 30 mg): 450.0 (40, 555) min | Subjective WASO (sWASO) (min) Median (min, max) ([1]; 30 mg): 10.0 (0, 120) min | Total sleep time (TST) (min), Median Difference from Placebo ([1]; 30 mg): 54.50* min | Wakefulness after sleep onset (WASO (min), Median Difference from Placebo) ([1]; 30 mg): −22.00* min | effect on REM sleep ([1]; 30 mg and 45 mg): did not disrupt REM sleep | LPS (min), Median ([1]; 30 mg single evening dose): 13.25 min | NAW, Median ([1]; 30 mg single evening dose): 8.00 | SE (%) (sleep efficiency), Median ([1]; 30 mg single evening dose): 84.64% | TST (min), Median ([1]; 30 mg single evening dose): 406.25 min | WASO (min), Median ([1]; 30 mg single evening dose): 55.00 min | mDURAW (min), Median ([1]; 30 mg single evening dose): 4.23 min | decrease in median duration of awakenings from baseline ([1]; 30 mg): 2.629 | TST median change (increase) from baseline ([1]; 30 mg): 85.25 min | Sleep efficiency (SE) increase from baseline (median) ([1]; 30 mg): 17.761% | WASO median change from baseline ([1]; 30 mg): -74.75 min | LPS decrease from median baseline ([1]; 30 mg, median baseline 28.50): 13.25 min | Subjective Sleep Quality (sSQ) Median (min, max) ([1]; 30 mg): 8.0 (5, 10) | Latency to persistent sleep (LPS) (min), Median Difference from Placebo ([1]; 45 mg): -1.00 min | Mean Duration of Awakenings (mDURAW) (min), Median Difference from Placebo ([1]; 45 mg): −1.50+ min | Number of Awakenings (NAW), Median Difference from Placebo ([1]; 45 mg): −2.00 | REM Sleep ([1]; 45 mg): 43.54 min | Sleep Efficiency (SE) (%), Median Difference from Placebo ([1]; 45 mg): 12.61* % | Stage N1 ([1]; 45 mg): 19.58 min | Stage N2 ([1]; 45 mg): 266.79 min | Stage N3 (SWS) ([1]; 45 mg): 74.71 min | Subjective Sleep Latency (sSL) (min) Median (min, max) ([1]; 45 mg): 10 (1, 60) min | Subjective TST (sTST) (min) Median (min, max) ([1]; 45 mg): 465.0 (0, 510) min | Subjective WASO (sWASO) (min) Median (min, max) ([1]; 45 mg): 5.0 (0, 300) min | Total sleep time (TST) (min), Median Difference from Placebo ([1]; 45 mg): 60.50* min | Wakefulness after sleep onset (WASO (min), Median Difference from Placebo) ([1]; 45 mg): −55.50* min | LPS (min), Median ([1]; 45 mg single evening dose): 14.25 min | NAW, Median ([1]; 45 mg single evening dose): 7.00 | SE (%) (sleep efficiency), Median ([1]; 45 mg single evening dose): 87.55% | TST (min), Median ([1]; 45 mg single evening dose): 420.25 min | WASO (min), Median ([1]; 45 mg single evening dose): 42.50 min | mDURAW (min), Median ([1]; 45 mg single evening dose): 3.67 min | decrease in median duration of awakenings from baseline ([1]; 45 mg): 4.261 | TST median change (increase) from baseline ([1]; 45 mg): 96.00 min | Sleep efficiency (SE) increase from baseline (median) ([1]; 45 mg): 20.000% | WASO median change from baseline ([1]; 45 mg): -75.25 min | Subjective Sleep Quality (sSQ) Median (min, max) ([1]; 45 mg): 9.0 (6, 10) | LPS decrease from baseline ([1]; median baseline 28.50): 14.50 min | impact on latency to persistent sleep (LPS) ([1]; single dose capsule of 30 mg or 45 mg in the evening): did not impact | intensity of adverse events [2]: mild | serious or severe adverse events [2]: no serious or severe adverse events were observed
